Results: US20090246172A1, “COMPOSITIONS COMPRISING EPOTHILONES AND THEIR USE FOR THE TREATMENT OF CARCINOID SYNDROME” (priority 2001, published 2009)

Tested on: carcinoid syndrome and/or at least one neuroendocrine tumor
Assay: treatment of a human patient with epothilone B (Example 1)
Assay type: in vivo
Procedure: A human patient experiencing 3 loose bowel movements each day, frequent nausea and anorexia presented a plasma serotonin level of 361 ng/ml and an octreotide scan showing foci of abnormal activity in the pelvis, liver, upper chest and neck. They received 2.5 mg/m^2 of epothilone B weekly every 3 of 4 weeks.

## C/C(=C\c1csc(C)n1)[C@@H]1C[C@@H]2O[C@]2(C)CCC[C@H](C)[C@H](O)[C@@H](C)C(=O)C(C)(C)[C@@H](O)CC(=O)O1 [epothilone B]
2.5 mg/m^2 weekly every 3 of 4 weeks, after 6 doses plus further about two months
  octreotide scan: no evidence of disease
2.5 mg/m^2 weekly every 3 of 4 weeks, after 6 doses, before treatment foci in pelvis, liver, upper chest and neck
  octreotide scan: minimal focus of activity in the pelvis alone
Conclusion drawn from the observations in Example 1 ('make it likely')
  tumor burden of the patient: significantly decreased
patient, 2.5 mg/m^2 weekly every 3 of 4 weeks, 6 doses plus further about two months, level before treatment 361 ng/ml, within normal limits
  plasma serotonin level: 62 ng/mL
